From ChEMBL document CHEMBL2413072, “Synthesis and in vitro anticancer studies of novel C-2 arylidene congeners of lantadenes” (2013)

Columns and labels:
Assay type in all cases: functional
[1] = Growth inhibition of human HCC2998 cells assessed as cell growth at 10^-6 M by sulforhodamine B assay; conditions: HCC 2998, read-out: Activity
[2] = system: MOLT-4; assay: Growth inhibition of human MOLT4 cells assessed as cell growth at 10^-6 M by sulforhodamine B assay; conditions: read-out: Activity
[3] = system: SK-MEL-2; assay: Growth inhibition of human SK-MEL-2 cells assessed as cell growth at 10^-6 M by sulforhodamine B assay; conditions: read-out: Activity
[4] = system: RXF 393; assay: Growth inhibition of human RXF393 cells assessed as cell growth at 10^-6 M by sulforhodamine B assay; conditions: read-out: Activity
[5] = system: COLO 205; assay: Growth inhibition of human COLO205 cells assessed as cell growth at 10^-8 M by sulforhodamine B assay; conditions: read-out: Activity
[6] = system: MDA-MB-435; assay: Growth inhibition of human MDA-MB-435 cells assessed as cell growth at 10^-4 M by sulforhodamine B assay; conditions: read-out: Activity
[7] = system: NCI-H522; assay: Growth inhibition of human NCI-H522 cells assessed as cell growth at 10^-4 M by sulforhodamine B assay; conditions: read-out: Activity
[8] = system: TK-10; assay: Growth inhibition of human TK10 cells assessed as cell growth at 10^-7 M by sulforhodamine B assay; conditions: read-out: Activity
[9] = system: SF-539; assay: Growth inhibition of human SF539 cells assessed as cell growth at 10^-4 M by sulforhodamine B assay; conditions: read-out: Activity
[10] = system: KM12; assay: Growth inhibition of human KM12 cells assessed as cell growth at 10^-6 M by sulforhodamine B assay; conditions: read-out: Activity
[11] = system: ACHN; assay: Growth inhibition of human ACHN cells assessed as cell growth at 10^-4 M by sulforhodamine B assay; conditions: read-out: Activity
[12] = system: HL-60(TB); assay: Growth inhibition of human HL-60(TB) cells assessed as cell growth at 10^-6 M by sulforhodamine B assay; conditions: read-out: Activity
[13] = system: HCT-116; assay: Growth inhibition of human HCT116 cells assessed as cell growth at 10^-7 M by sulforhodamine B assay; conditions: read-out: Activity
[14] = system: OVCAR-8; assay: Growth inhibition of human OVCAR8 cells assessed as cell growth at 10^-8 M by sulforhodamine B assay; conditions: read-out: Activity
[15] = system: CAKI-1; assay: Growth inhibition of human CAKI-1 cells assessed as cell growth at 10^-7 M by sulforhodamine B assay; conditions: read-out: Activity
[16] = system: IGROV-1; assay: Growth inhibition of human IGROV1 cells assessed as cell growth at 10^-6 M by sulforhodamine B assay; conditions: read-out: Activity
[17] = system: SNB-19; assay: Growth inhibition of human SNB19 cells by sulforhodamine B assay
[18] = Growth inhibition of human NCI-ADR-RES cells assessed as cell growth at 10^-6 M by sulforhodamine B assay; conditions: read-out: Activity
[19] = system: A549; assay: Growth inhibition of human A549/ATCC cells assessed as cell growth at 10^-8 M by sulforhodamine B assay; conditions: read-out: Activity
[20] = Growth inhibition of human Hs 578T cells assessed as cell growth at 10^-6 M by sulforhodamine B assay; conditions: read-out: Activity
[21] = system: MDA-MB-468; assay: Growth inhibition of human MDA-MB-468 cells assessed as cell growth at 10^-6 M by sulforhodamine B assay; conditions: read-out: Activity
[22] = system: HT-29; assay: Growth inhibition of human HT-29 cells assessed as cell growth at 10^-4 M by sulforhodamine B assay; conditions: read-out: Activity
[23] = system: CAKI-1; assay: Growth inhibition of human CAKI-1 cells assessed as cell growth at 10^-6 M by sulforhodamine B assay; conditions: read-out: Activity
[24] = system: SF-295; assay: Growth inhibition of human SF295 cells assessed as cell growth at 10^-8 M by sulforhodamine B assay; conditions: read-out: Activity
[25] = system: SF-539; assay: Growth inhibition of human SF539 cells assessed as cell growth at 10^-6 M by sulforhodamine B assay; conditions: read-out: Activity
[26] = system: SF-268; assay: Growth inhibition of human SF268 cells by sulforhodamine B assay
[27] = system: LOX IMVI; assay: Growth inhibition of human LOXIMVI cells assessed as cell growth at 10^-8 M by sulforhodamine B assay; conditions: read-out: Activity
[28] = system: NCI-H226; assay: Growth inhibition of human NCI-H226 cells assessed as cell growth at 10^-8 M by sulforhodamine B assay; conditions: read-out: Activity
[29] = system: OVCAR-3; assay: Growth inhibition of human OVCAR3 cells assessed as cell growth at 10^-6 M by sulforhodamine B assay; conditions: read-out: Activity
[30] = system: SNB-75; assay: Growth inhibition of human SNB75 cells assessed as cell growth at 10^-4 M by sulforhodamine B assay; conditions: read-out: Activity
[31] = Growth inhibition of human HCC2998 cells assessed as cell growth at 10^-7 M by sulforhodamine B assay; conditions: HCC 2998, read-out: Activity
[32] = system: SK-OV-3; assay: Growth inhibition of human SKOV3 cells assessed as cell growth at 10^-8 M by sulforhodamine B assay; conditions: read-out: Activity
[33] = system: HOP-92; assay: Growth inhibition of human HOP92 cells assessed as cell growth at 10^-7 M by sulforhodamine B assay; conditions: read-out: Activity
[34] = system: NCI-H23; assay: Growth inhibition of human NCI-H23 cells assessed as cell growth at 10^-8 M by sulforhodamine B assay; conditions: read-out: Activity
[35] = system: SR; assay: Growth inhibition of human SR cells assessed as cell growth at 10^-8 M by sulforhodamine B assay; conditions: read-out: Activity
[36] = system: ACHN; assay: Growth inhibition of human ACHN cells assessed as cell growth at 10^-6 M by sulforhodamine B assay; conditions: read-out: Activity
[37] = Growth inhibition of human NCI-ADR-RES cells by sulforhodamine B assay
[38] = system: NCI-H23; assay: Growth inhibition of human NCI-H23 cells by sulforhodamine B assay
[39] = system: MDA-MB-468; assay: Growth inhibition of human MDA-MB-468 cells by sulforhodamine B assay
[40] = system: 786-0; assay: Growth inhibition of human 786-0 cells assessed as cell growth at 10^-4 M by sulforhodamine B assay; conditions: read-out: Activity
[41] = system: HCT-15; assay: Growth inhibition of human HCT15 cells by sulforhodamine B assay
[42] = system: BT-549; assay: Growth inhibition of human BT549 cells assessed as cell growth at 10^-4 M by sulforhodamine B assay; conditions: read-out: Activity
[43] = read-out: LC50 (the source's name)
[44] = read-out: pLC50 (the source's name) (converted)

**Q.** Which growth at 1 µM [1] does the source give for `CC(C)=CC(=O)O[C@@H]1CC(C)(C)C[C@H]2C3=CC[C@@H]4[C@@]5(C)CCC(=O)C(C)(C)[C@@H]5CC[C@@]4(C)[C@]3(C)CC[C@@]12C(=O)O` here?
**A.** 88%

**Q.** What about the growth at 1 µM [2] of the same compound?
**A.** 85%

**Q.** And the growth at 1 µM [3]?
**A.** 85%

**Q.** And the growth at 1 µM [4]?
**A.** 85%

**Q.** And the growth at 0.01 µM [5]?
**A.** 106%

**Q.** What about the growth at 100 µM [6] of the same compound?
**A.** 1%

**Q.** What about the growth at 100 µM [7] of the same compound?
**A.** -20%

**Q.** What about the growth at 0.1 µM [8] of the same compound?
**A.** 93%

**Q.** And the growth at 100 µM [9]?
**A.** -50%

**Q.** And the growth at 1 µM [10]?
**A.** 48%

**Q.** What about the growth at 100 µM [11] of the same compound?
**A.** -31%

**Q.** And the growth at 1 µM [12]?
**A.** 94%

**Q.** And the growth at 0.1 µM [13]?
**A.** 98%

**Q.** What about the growth at 0.01 µM [14] of the same compound?
**A.** 95%

**Q.** What about the growth at 0.1 µM [15] of the same compound?
**A.** 93%

**Q.** What about the growth at 1 µM [16] of the same compound?
**A.** 98%

**Q.** And the GI50 ([17]; read-out: GI50)?
**A.** 4.25 µM

**Q.** What about the CC50 [17, 43] of the same compound?
**A.** > 100 µM

**Q.** And the TGI ([17]; read-out: TGI)?
**A.** > 100 µM

**Q.** And the GI50 ([17]; read-out: pGI50 (converted))?
**A.** 4.27 µM

**Q.** What about the CC50 [17, 44] of the same compound?
**A.** > 100 µM

**Q.** And the TGI ([17]; read-out: pTGI (converted))?
**A.** > 100 µM

**Q.** And the growth at 1 µM [18]?
**A.** 85%

**Q.** What about the growth at 0.01 µM [19] of the same compound?
**A.** 93%

**Q.** And the growth at 1 µM [20]?
**A.** 86%

**Q.** And the growth at 1 µM [21]?
**A.** 74%

**Q.** What about the growth at 100 µM [22] of the same compound?
**A.** -27%

**Q.** And the growth at 1 µM [23]?
**A.** 87%

**Q.** What about the growth at 0.01 µM [24] of the same compound?
**A.** 86%

**Q.** And the growth at 1 µM [25]?
**A.** 90%

**Q.** What about the GI50 ([26]; read-out: GI50) of the same compound?
**A.** 5.27 µM

**Q.** What about the LC50 ([26]; read-out: LC50) of the same compound?
**A.** > 100 µM

**Q.** What about the TGI ([26]; read-out: TGI) of the same compound?
**A.** 29.4 µM

**Q.** And the GI50 ([26]; read-out: pGI50 (converted))?
**A.** 5.25 µM

**Q.** What about the LC50 ([26]; read-out: pLC50 (converted)) of the same compound?
**A.** > 100 µM

**Q.** And the TGI ([26]; read-out: pTGI (converted))?
**A.** 29.5 µM

**Q.** What about the growth at 0.01 µM [27] of the same compound?
**A.** 98%

**Q.** What about the growth at 0.01 µM [28] of the same compound?
**A.** 95%

**Q.** And the growth at 1 µM [29]?
**A.** 84%

**Q.** And the growth at 100 µM [30]?
**A.** -31%

**Q.** What about the growth at 0.1 µM [31] of the same compound?
**A.** 96%

**Q.** And the growth at 0.01 µM [32]?
**A.** 106%

**Q.** What about the growth at 0.1 µM [33] of the same compound?
**A.** 90%

**Q.** What about the growth at 0.01 µM [34] of the same compound?
**A.** 94%

**Q.** And the growth at 0.01 µM [35]?
**A.** 109%

**Q.** What about the growth at 1 µM [36] of the same compound?
**A.** 73%

**Q.** What about the GI50 ([37]; read-out: GI50) of the same compound?
**A.** 3.75 µM

**Q.** What about the CC50 [37, 43] of the same compound?
**A.** > 100 µM

**Q.** And the TGI ([37]; read-out: TGI)?
**A.** > 100 µM

**Q.** What about the GI50 ([37]; read-out: pGI50 (converted)) of the same compound?
**A.** 3.72 µM

**Q.** And the CC50 [37, 44]?
**A.** > 100 µM

**Q.** And the TGI ([37]; read-out: pTGI (converted))?
**A.** > 100 µM

**Q.** What about the GI50 ([38]; read-out: GI50) of the same compound?
**A.** 3.96 µM

**Q.** And the CC50 [38, 43]?
**A.** > 100 µM

**Q.** And the TGI ([38]; read-out: TGI)?
**A.** 51.9 µM

**Q.** And the GI50 ([38]; read-out: pGI50 (converted))?
**A.** 3.98 µM

**Q.** And the CC50 [38, 44]?
**A.** > 100 µM

**Q.** And the TGI ([38]; read-out: pTGI (converted))?
**A.** 52.5 µM

**Q.** What about the GI50 ([39]; read-out: GI50) of the same compound?
**A.** 2.27 µM

**Q.** And the CC50 [39, 43]?
**A.** > 100 µM

**Q.** And the TGI ([39]; read-out: TGI)?
**A.** 13.7 µM

**Q.** What about the GI50 ([39]; read-out: pGI50 (converted)) of the same compound?
**A.** 2.29 µM

**Q.** And the CC50 [39, 44]?
**A.** > 100 µM

**Q.** And the TGI ([39]; read-out: pTGI (converted))?
**A.** 13.8 µM

**Q.** What about the growth at 100 µM [40] of the same compound?
**A.** -42%

**Q.** What about the GI50 ([41]; read-out: GI50) of the same compound?
**A.** 1.29 µM

**Q.** What about the LC50 (50% lethal concentration) ([41]; read-out: LC50) of the same compound?
**A.** > 100 µM

**Q.** What about the TGI ([41]; read-out: TGI) of the same compound?
**A.** 15.6 µM

**Q.** What about the GI50 ([41]; read-out: pGI50 (converted)) of the same compound?
**A.** 1.29 µM

**Q.** What about the LC50 (50% lethal concentration) ([41]; read-out: pLC50 (converted)) of the same compound?
**A.** > 100 µM

**Q.** And the TGI ([41]; read-out: pTGI (converted))?
**A.** 15.5 µM

**Q.** And the growth at 100 µM [42]?
**A.** -47%
